Where a name gives a salt, the structure may show the parent alone.

For orientation: EC50 means the midpoint of the concentration-response curve.

The subject of one assay is NQO1 specific enzyme activity in BEAS-2B cells. Nature of the assay: BEAS-2B NQO1 MTT assay. The settings on record: BEAS-2B cells, 48 hours with compound, MTT readout; read-out: EC50 of NQO1 specific activity induction. It counts as cell-based. From the text: NAD(P)H:quinone oxidoreductase 1 (NQO1), also called DT diaphorase, is a homodimeric FAD-containing enzyme that catalyzes obligatory NAD(P)H-dependent two-electron reductions of quinones and protects cells against the toxic and neoplastic effects of free radicals and reactive oxygen species arising from one-electron reductions. The transcription of NQO1 is finely regulated by NRF2, and thus NQO1 activity is a good marker for NRF2 activation. On day one, frozen BEAS-2B cells (ATCC) are thawed in a water bath, counted, and re-suspended at a concentration of 250,000 cells/mL. Fifty microliters of cells are plated in 384 well black clear-bottomed plates. Plates are incubated at 37° C., 5% CO2 overnight. On day two, plates are centrifuged and 50 nL of compound or controls are added to the cells. Plates are then incubated at 37° C., 5% CO2 for 48 hours. On day four, medium is aspirated from the plate and crude cell lysates are made by adding 13 uL of 1× Cell Signaling Technologies lysis buffer with 1 Complete, Mini, EDTA-free Protease Inhibitor Tablet (Roche) for each 10 mL of lysis buffer. After lysis plates are incubated for 20 minutes at room temperature. Two microliters of lysate are removed for use in Cell Titer Glo assay (Promega) and MTT cocktail is prepared (Prochaska et. al. 1998) for measurement of NQO1 activity. Fifty microliters of MTT cocktail is added to each well, plate is centrifuged, and analyzed on an Envision plate reader (Perkin Elmer) using Absorbance 570 nm label for 30 minutes. Product formation is measured kinetically and the EC50 of NQO1 specific activity induction is calculated by plotting the change in absorbance (Delta OD/min) versus the log of compound concentration followed by 3-parameter fitting.
A general note: Tetrazolium assays rely on reduction of a dye to a coloured formazan, in cell work by metabolically active cells.
As for “3-(1,4-dimethyl-1H-benzo[d][1,2,3]triazol-5-yl)-3-(3-((8-methoxy-4-methyl-4,5-dihydro-1H-benzo[c]azepin-2(3H)-yl)methyl)-4-methylphenyl)propanoic Acid [Example 7]”, the EC50 was 1000 to 10000 nM.

Turning to `Cc1ccc(C(CC(=O)O)c2ccc3c(nnn3C)c2C)cc1CN1Cc2cc(C#N)ccc2OC(C)(C)C1` (single isomer, unassigned) [Example 172], the EC50 lay in the range of 10 to 100 nM. On the same count and under the same terms, next, `Cc1ccc(C(CC(=O)O)c2ccc3c(nnn3C)c2C)cc1CN1Cc2ccc(C#N)cc2OC(C)(C)C1` (single isomer, unassigned) [Example 174]: 10 to 100 nM. On the same count and under the same terms, next, `CCC1CCN(Cc2nccn2Cc2cc(C(CCc3cn(CC)nn3)C(C)C(=O)O)ccc2C)CC1` (single isomer, unassigned) [Example 226, 5-(1-Ethyl-1H-1,2,3-triazol-4-yl)-3-(3-((2-((4-ethylpiperidin-1-yl)methyl)-1H-imidazol-1-yl)methyl)-4-methylphenyl)-2-methylpentanoic acid, Trifluoroacetic Acid Salt]: 10 to 100 nM.

As for `CCn1cc(CCC(c2ccc(C)c(CN3Cc4cnccc4OC(C)(C)C3)c2)C(C)C(=O)O)nn1` (single isomer, unassigned) [Example 228, 3-(3-((2,2-Dimethyl-2,3-dihydropyrido[3,4-f][1,4]oxazepin-4(5H)-yl)methyl)-4-methylphenyl)-5-(1-ethyl-1H-1,2,3-triazol-4-yl)-2-methylpentanoic acid], the concentration for a half-maximal effect (EC50) was in the range of 100 to 1000 nM. The same measure, in the same setting: next, `CCCn1cc(CCC(c2ccc(C)c(Cn3ccnc3CN3CCC(CC)CC3)c2)C(C)(C)C(=O)O)nn1` (single isomer, unassigned) [Example 247, 3-(3-((2-((4-Ethylpiperidin-1-yl)methyl)-1H-imidazol-1-yl)methyl)-4-methylphenyl)-2,2-dimethyl-5-(1-propyl-1H-1,2,3-triazol-4-yl)pentanoic Acid]: 1 to 10 nM; `CCCn1cc(CCC(c2ccc(C)c(Cn3ccnc3CN3CCC(CC)CC3)c2)C(C)(C)C(=O)O)nn1` (single isomer, unassigned) [Example 248, 3-(3-((2-((4-ethylpiperidin-1-yl)methyl)-1H-imidazol-1-yl)methyl)-4-methylphenyl)-2,2-dimethyl-5-(1-propyl-1H-1,2,3-triazol-4-yl)pentanoic Acid]: 10 to 100 nM; `CCC1CCN(Cc2nccn2Cc2cc(C(CCc3cn(CC)nn3)C(C)(C)C(=O)O)ccc2C)CC1` (single isomer, unassigned) [Example 249, 5-(1-ethyl-1H-1,2,3-triazol-4-yl)-3-(3-((2-((4-ethylpiperidin-1-yl)methyl)-1H-imidazol-1-yl)methyl)-4-methylphenyl)-2,2-dimethylpentanoic Acid]: 1 to 10 nM. Same read-out and setting: the figure for `CCC1CCN(Cc2nccn2Cc2cc(C(CCc3cn(CC)nn3)C(C)(C)C(=O)O)ccc2C)CC1` (single isomer, unassigned) [Example 250, 5-(1-ethyl-1H-1,2,3-triazol-4-yl)-3-(3-((2-((4-ethylpiperidin-1-yl)methyl)-1H-imidazol-1-yl)methyl)-4-methylphenyl)-2,2-dimethylpentanoic acid] is 10 to 100 nM; for `CC[C@@H]1CN(Cc2cc(C(CCc3cn(CC)nn3)C(C)(C)C(=O)O)ccc2C)Cc2ncccc2O1` (single isomer, unassigned) [Example 251] it is 1 to 10 nM; for `CC[C@@H]1CN(Cc2cc(C(CCc3cn(CC)nn3)C(C)(C)C(=O)O)ccc2C)Cc2ncccc2O1` (single isomer, unassigned) [Example 252] it is 10 to 100 nM. Still for that read-out and setting: the figure for `CC[C@@H]1CN(Cc2cc(C(CCc3cn(CC)nn3)C(C)C(=O)O)ccc2C)Cc2ccccc2O1` (single isomer, unassigned; isomer 1) [Example 118] is 1000 to 10000 nM; for `Cc1ccc([C@@H](CC(=O)O)c2ccc3c(nnn3C)c2C)cc1CN1CCCC(n2cccn2)C1` (single isomer, unassigned; isomer 1) [Example 157] it is 100 to 1000 nM; for `CC[C@@H]1CN(Cc2cc(C(CCc3cn(CC)nn3)C(C)C(=O)O)ccc2C)Cc2ccccc2O1` (single isomer, unassigned; isomer 2) [Example 119] it is 10 to 100 nM. With `Cc1ccc([C@@H](CC(=O)O)c2ccc3c(nnn3C)c2C)cc1CN1CCCC(n2cccn2)C1` (single isomer, unassigned; isomer 2) [Example 158], the EC50 lay in the range of 1000 to 10000 nM. On the same count and under the same terms, the figure for `CC[C@@H]1CN(Cc2cc(C(CCc3cn(CC)nn3)C(C)C(=O)O)ccc2C)Cc2ccccc2O1` (single isomer, unassigned; isomer 3) [Example 120] is 1 to 10 nM. Take `Cc1ccc(C(CC(=O)O)c2ccc3c(nnn3C)c2C)cc1CN1Cc2ncccc2OC(C)(C)C1` (stereo in doubt) [Example 170, (S)-3-(1,4-Dimethyl-1H-benzo[d][1,2,3]triazol-5-yl)-3-(3-((2,2-dimethyl-2,3-dihydropyrido[2,3-f][1,4]oxazepin-4(5H)-yl)methyl)-4-methylphenyl)propanoic acid, 0.5 Formlc acid salt]: the EC50 lay within 10 to 100 nM.

The assay is the same for the next values; noted with them: Homo sapiens, BEAS-2B, 48 h, BEAS-2B cells, 48 hours with compound, MTT readout; read-out: EC50 of NQO1 specific activity induction.
Take `CC[C@@H]1CN(Cc2cc([C@H](CC(=O)O)c3ccc4c(nnn4CC)c3F)ccc2C)Cc2ccccc2O1` (relative stereo) [compound 182, rel-(S)-3-(3-(((R)-2-Ethyl-2,3-dihydrobenzo[f][1,4]oxazepin-4(5H)-yl)methyl)-4-methylphenyl)-3-(1-ethyl-4-fluoro-1H-benzo[d][1,2,3]triazol-5-yl)propanoic acid]: the EC50 was 100 to 1000 nM. Still for that read-out and setting: next, `Cc1ccc(C(CC(=O)O)c2ccc3c(nnn3C)c2C)cc1CN1Cc2cc(C#N)ccc2OC(C)(C)C1` (single isomer, unassigned) [Example 171]: 10 to 100 nM.

On to `Cc1ccc(C(CC(=O)O)c2ccc3c(nnn3C)c2C)cc1CN1Cc2ccc(C#N)cc2OC(C)(C)C1` (single isomer, unassigned) [Example 173], for which the EC50 was in the range of 10 to 100 nM. Same read-out and setting: the figure for `CC[C@@H]1CN(Cc2cc(C(CC(=O)O)c3ccc4c(nnn4CC)c3F)ccc2C)Cc2ccccc2O1` (single isomer, unassigned) [Example 181] is 10 to 100 nM. Still for that read-out and setting: next, `CCn1cc(CCC(c2ccc(C)c(CN3Cc4cnccc4OC(C)(C)C3)c2)C(C)C(=O)O)nn1` (single isomer, unassigned) [Example 227, 3-(3-((2,2-Dimethyl-2,3-dihydropyrido[3,4-f][1,4]oxazepin-4(5H)-yl)methyl)-4-methylphenyl)-5-(1-ethyl-1H-1,2,3-triazol-4-yl)-2-methylpentanoic acid, Trifluoroacetic acid salt]: 100 to 1000 nM; `Cc1ccc(C(c2ccc3c(nnn3C)c2C)C(C)(C)C(=O)O)cc1Cc1cnnn1CC1CCCCCC1` (single isomer, unassigned) [Example 241]: < 1 nM. For `Cc1ccc([C@H](c2ccc3c(nnn3C)c2C)C(C)(C)C(=O)O)cc1Cc1cnnn1CC1CCCCCC1` (single isomer, unassigned) [Example 242], the EC50 lay within 10 to 100 nM. The same measure, in the same setting: the figure for `Cc1ccc([C@H](CC(=O)O)c2ccc3c(nnn3C)c2C)cc1CN1CCCC(n2cccn2)C1` (single isomer, unassigned) [compound 159] is 1000 to 10000 nM; for `CCn1nnc2c(C)c([C@@H](c3ccc(C)c(CN4Cc5ccccc5OC(C)(C)C4)c3)C(C)(C)C(=O)O)ccc21` (single isomer, unassigned; enantiomer a) [Example 206] it is 1 to 10 nM. Still for that read-out and setting: the figure for `CCn1nnc2c(C)c([C@H](c3ccc(C)c(CN4Cc5ccccc5OC(C)(C)C4)c3)C(C)(C)C(=O)O)ccc21` (single isomer, unassigned; enantiomer b) [Example 207] is 10 to 100 nM; for `CCC1CCN(Cc2nccn2Cc2cc(C(CCc3cn(CC)nn3)C(C)C(=O)O)ccc2C)CC1` (single isomer, unassigned; isomer 1) [Example 225, 5-(1-Ethyl-1H-1,2,3-triazol-4-yl)-3-(3-((2-((4-ethylpiperidin-1-yl)methyl)-1H-imidazol-1-yl)methyl)-4-methylphenyl)-2-methylpentanoic Acid, Trifluoroacetic Acid Salt (Compound 9, Isomer 1,Scheme A)] it is 10 to 100 nM; for `Cc1c(C(CC(=O)O)c2ccc(F)c(CN3Cc4ncccc4OC(C)(C)C3)c2)ccc2c1nnn2C` (single isomer, unassigned; isomer 1) [Example 261] it is 100 to 1000 nM. On the same count and under the same terms, next, `Cc1c(C(CC(=O)O)c2ccc(Cl)c(CN3Cc4ncccc4OC(C)(C)C3)c2)ccc2c1nnn2C` (single isomer, unassigned; isomer 1) [Example 262]: 10 to 100 nM; `Cc1ccc(C(CC(=O)O)c2ccc3c(nnn3C)c2C)cc1CN1CCOc2ccccc2C1` (stereo not shown) [Example 1, 3-(3-((2,3-Dihydrobenzo[f][1,4]oxazepin-4(5H)-yl)methyl)-4-methylphenyl)-3-(1,4-dimethyl-1H-benzo[d][1,2,3]triazol-5-yl)propanoic Acid, Trifluoroacetic Acid Salt]: 1000 to 10000 nM.

Source of the values: patent publication US10604509B2, “Nrf2 regulators” (GlaxoSmithKline Intellectual Property Development Limited, priority 2015, dated 2020).
